Test results reported in patent publication US11253525B2, “Inhibitors of indoleamine 2,3-dioxygenase and methods of their use” (BRISTOL-MYERS SQUIBB COMPANY, priority 2018, dated 2022).

These molecules were tested against T1, indoleamine 2,3-dioxygenase (IDO) (Homo sapiens, UniProt P14902) (assay: HeLa cell-based indoleamine 2,3-dioxygenase (IDO) assay, kynurenine production). Settings: HeLa cells, IFNγ 25 ng/mL, 48 hour incubation; read-out: IDO Hela IC50.
T1 construct: replaced with media containing IFNγ (#285-IF/CF, R&D Systems) at a final concentration of 25 ng/mL; endogenous in cells; host or cells: HeLa (ATCC CCL-2), IFN-gamma stimulated
Method: Assessment of Inhibitor Activity in HeLa Cell-Based Indoleamine 23-Dioxygenase (IDO) Assay
Cells were maintained in a humidified incubator at 37° C. in 5% CO2.
IDO activity was assessed as a function of kynurenine production as follows: HeLa cells were seeded in a 96-well culture plate at a density of 5,000 cells/well and allowed to equilibrate overnight. […] A serial dilution of each test compound was added to the cells in a total volume of 200 μL of culture medium. After a further 48 hour incubation, 170 μL of supernatant was transferred from each well to a fresh 96-well plate. 12.1 μL of 6.1N trichloroacetic acid (#T0699, Sigma-Aldrich) was added to each well and mixed, followed by incubation at 65° C. for 20 minutes to hydrolyze N-formylkynurenine, the product of indoleamine 2,3-dioxygenase, to kynurenine. The reaction mixture was then centrifuged for 10 mins at 500×g to sediment the precipitate. 100 μL of the supernatant was transferred from each well to a fresh 96-well plate. […] Kynurenine concentrations were determined by measuring absorbance at 480 nm and calibrating against an L-kynurenine (#K8625, Sigma-Aldrich) standard curve using a SPECTRAMAX® M2e microplate reader (Molecular Devices). The percentage activity at each inhibitor concentration was determined and IC50 values assessed using nonlinear regression.

T1 sequence (P14902 whole entry): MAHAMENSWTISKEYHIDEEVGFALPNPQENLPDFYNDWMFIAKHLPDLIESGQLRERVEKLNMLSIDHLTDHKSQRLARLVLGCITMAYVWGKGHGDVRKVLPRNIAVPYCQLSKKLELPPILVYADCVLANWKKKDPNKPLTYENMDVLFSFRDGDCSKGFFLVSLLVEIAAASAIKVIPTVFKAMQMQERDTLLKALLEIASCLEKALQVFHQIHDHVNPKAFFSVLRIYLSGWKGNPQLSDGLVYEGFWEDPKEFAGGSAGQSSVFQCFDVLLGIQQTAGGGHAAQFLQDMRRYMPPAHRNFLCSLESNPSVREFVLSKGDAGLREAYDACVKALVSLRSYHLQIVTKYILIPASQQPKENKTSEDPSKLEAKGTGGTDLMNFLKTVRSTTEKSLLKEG

| Molecule | IC50 [nM] |
| --- | --- |
| CCO[C@@H](c1ccc([C@@H](COC)CC(=O)O)cc1Nc1ccc(Cl)cc1)C(F)(F)F (single isomer, unassigned) [Example 79] | 10 |
| CC[C@@H](CC(=O)O)c1ccc([C@@H](OC)C(F)(F)F)c(Nc2cnc(C)nc2)c1 (single isomer, unassigned) [Example 86] | 450 |
| CCOc1ncc(Nc2cc([C@@H](CC)CC(=O)O)ccc2[C@@H](OC)C(F)(F)F)cn1 (single isomer, unassigned) [Example 87] | 130 |
| CC[C@@H](CC(=O)O)c1ccc([C@@H](OC)C(F)(F)F)c(Nc2cnc(C(F)(F)F)nc2)c1 (single isomer, unassigned) [Example 88] | 10 |
| CCOc1ncc(Nc2cc([C@H](CC)CC(=O)O)ccc2[C@@H](OC)C(F)(F)F)cn1 (single isomer, unassigned) [Example 91] | 30 |
| CC[C@H](CC(=O)O)c1ccc([C@@H](OC)C(F)(F)F)c(Nc2cnc(C(F)(F)F)nc2)c1 (single isomer, unassigned) [Example 92] | 10 |
| CC[C@H](CC(=O)O)c1ccc([C@H](OC)C(F)(F)F)c(Nc2cnc(C)nc2)c1 (single isomer, unassigned) [Example 94] | 70 |
| CC[C@H](CC(=O)O)c1ccc([C@H](OC)C(F)(F)F)c(Nc2cnc(C(F)(F)F)nc2)c1 (single isomer, unassigned) [Example 96] | 10 |
| CC[C@@H](CC(=O)O)c1ccc([C@H](OC)C(F)(F)F)c(Nc2cnc(C)nc2)c1 (single isomer, unassigned) [Example 98] | 150 |
| CCOc1ncc(Nc2cc([C@@H](CC)CC(=O)O)ccc2[C@H](OC)C(F)(F)F)cn1 (single isomer, unassigned) [Example 99] | 30 |
| CC[C@@H](CC(=O)O)c1ccc([C@H](OC)C(F)(F)F)c(Nc2cnc(C(F)(F)F)nc2)c1 (single isomer, unassigned) [Example 100] | 10 |
| CCOc1ncc(Nc2cc([C@@H](COC)CC(=O)O)ccc2[C@H](CC)N2CCOCC2)cn1 (single isomer, unassigned) [Example 103] | 200 |
| CC[C@@H](c1ccc([C@@H](COC)CC(=O)O)cc1Nc1ccc(F)cc1)N1CCOCC1 (single isomer, unassigned) [Example 106] | 10 |
| CCOc1ncc(Nc2cc([C@@H](CC)CC(=O)O)ccc2[C@H](CC)N2CCOCC2)cn1 (single isomer, unassigned) [Example 118-1] | 750 |
| CCOc1ncc(Nc2cc([C@@H](CC)CC(=O)O)ccc2[C@H](CC)N2CCOCC2)cn1 (single isomer, unassigned) [Example 118-2] | 430 |
| CCOc1ncc(Nc2cc([C@@H](CC)CC(=O)O)ccc2[C@H](CC)N2CCOCC2)cn1 (single isomer, unassigned) [Example 118-4] | 10 |
| CCc1ncc(Nc2cc([C@H](CC)CC(=O)O)ccc2[C@@H](CC)N2CCOCC2)cn1 (single isomer, unassigned) [Example 119] | 20 |
| CC[C@@H](CC(=O)O)c1ccc([C@@H](CC)N2CCOCC2)c(Nc2ccc(C#N)cc2)c1 (single isomer, unassigned) [Example 124] | 70 |
| CCOc1ncc(Nc2cc([C@H](CC)CC(=O)O)ccc2[C@@H](CC)C2CCOCC2)cn1 (single isomer, unassigned) [Example 125-1] | 40 |
| CCc1ncc(Nc2cc([C@H](CC)CC(=O)O)ccc2[C@H](CC)C2CCOCC2)cn1 (single isomer, unassigned) [Example 128] | 120 |
| CC[C@H](CC(=O)O)c1ccc([C@@H](CC)C2CCOCC2)c(Nc2ccc(COC)nc2)c1 (single isomer, unassigned) [Example 129] | 310 |
| CC[C@@H](CC(=O)O)c1ccc([C@@H](CC)N2CCOCC2)c(Nc2ccc(Cl)cc2)c1 (single isomer, unassigned) [Example 132] | 70 |
| (S)-3-(3-(3-(4-cyano-3-fluorophenyl)ureido)-4-((R)-1-ethoxy-2,2,2-trifluoroethyl)phenyl)-4-methoxybutanoic acid [Example 63] | 20 |

Same assay, conditions: HeLa cells, IFNγ 25 ng/mL, 48 hour incubation; read-out: IDO Hela IC50 class (A < 50, B < 250, C < 2000)

| Molecule | IC50 [nM] |
| --- | --- |
| CCO[C@@H](c1ccc([C@@H](COC)CC(=O)O)cc1Nc1ccc(C#N)cc1)C(F)(F)F (single isomer, unassigned) [Example 80] | < 50 |
| CC[C@@H](CC(=O)O)c1ccc([C@@H](OC)C(F)(F)F)c(Nc2ccc(Cl)cc2)c1 (single isomer, unassigned) [Example 83-1] | < 50 |
| CC[C@H](CC(=O)O)c1ccc([C@@H](OC)C(F)(F)F)c(Nc2ccc(Cl)cc2)c1 (single isomer, unassigned) [Example 83-2] | < 50 |
| CC[C@H](CC(=O)O)c1ccc([C@H](OC)C(F)(F)F)c(Nc2ccc(Cl)cc2)c1 (single isomer, unassigned) [Example 84-1] | < 50 |
| CC[C@@H](CC(=O)O)c1ccc([C@H](OC)C(F)(F)F)c(Nc2ccc(Cl)cc2)c1 (single isomer, unassigned) [Example 84-2] | < 50 |
| CC[C@@H](CC(=O)O)c1ccc([C@@H](OC)C(F)(F)F)c(Nc2ccc(C#N)cc2)c1 (single isomer, unassigned) [Example 85] | < 50 |
| CC[C@H](CC(=O)O)c1ccc([C@H](OC)C(F)(F)F)c(Nc2ccc(C#N)cc2)c1 (single isomer, unassigned) [Example 93] | < 50 |
| CC[C@@H](CC(=O)O)c1ccc([C@H](OC)C(F)(F)F)c(Nc2ccc(C#N)cc2)c1 (single isomer, unassigned) [Example 97] | < 50 |
| CC[C@@H](c1ccc([C@@H](COC)CC(=O)O)cc1Nc1ccc(C#N)cc1)N1CCOCC1 (single isomer, unassigned) [Example 101-1] | < 50 |
| CC[C@H](c1ccc([C@@H](COC)CC(=O)O)cc1Nc1ccc(C#N)cc1)N1CCOCC1 (single isomer, unassigned) [Example 101-2] | 250 to 2000 |
| CC[C@@H](c1ccc([C@@H](COC)CC(=O)O)cc1Nc1ccc(COC)nc1)N1CCOCC1 (single isomer, unassigned) [Example 104] | 250 to 2000 |
| CCOc1ncc(Nc2cc([C@@H](COC)CC(=O)O)ccc2[C@@H](CC)N2CCOCC2)cn1 (single isomer, unassigned) [Example 108] | 250 to 2000 |
| CC[C@H](c1ccc([C@@H](COC)CC(=O)O)cc1Nc1ccc(F)cc1)N1CCOCC1 (single isomer, unassigned) [Example 111] | 250 to 2000 |
| CCOc1ncc(Nc2cc([C@@H](CC)CC(=O)O)ccc2[C@H](CC)N2CCOCC2)cn1 (single isomer, unassigned) [Example 118-3] | < 50 |
| CCOc1ncc(Nc2cc([C@H](CC)CC(=O)O)ccc2[C@H](CC)C2CCOCC2)cn1 (single isomer, unassigned) [Example 125-2] | < 50 |
| CCc1ncc(Nc2cc([C@H](CC)CC(=O)O)ccc2[C@@H](CC)C2CCOCC2)cn1 (single isomer, unassigned) [Example 126-1] | < 50 |
| CC[C@H](CC(=O)O)c1ccc([C@@H](CC)C2CCOCC2)c(Nc2ccc(COC)nc2)c1 (single isomer, unassigned) [Example 127] | < 50 |
| CC[C@H](CC(=O)O)c1ccc([C@@H](CC)C2CCOCC2)c(Nc2ccc(COC)nc2)c1 (single isomer, unassigned) [Example 129] | 50 to 250 |
| CCO[C@@H](c1ccc([C@@H](COC)CC(=O)O)cc1Nc1cnc(C)nc1)C(F)(F)F [Example 81, (S)-3-(4-((S)-1-ethoxy-2,2,2-trifluoroethyl)-3-((2-methylpyrimidin-5-yl)amino)phenyl)-4-methoxybutanoic Acid] | 250 to 2000 |
| (S)-3-(3-(3-(4-cyano-3-fluorophenyl)ureido)-4-((R)-1-ethoxy-2,2,2-trifluoroethyl)phenyl)-4-methoxybutanoic acid [Example 63] | < 50 |
| (S)-3-(4-((S)-1-ethoxy-2,2,2-trifluoroethyl)-3-((4-fluorophenyl)amino)phenyl)pentanoic acid [Example 48] | < 50 |

The molecules below were run against T2, human IDO1 (Homo sapiens, UniProt P14902) (assay: HEK293 cell-based indoleamine 2,3-dioxygenase (IDO) assay). Settings: human IDO1/HEK293 cells, 20 hours; read-out: IDO1 HEK Human IC50 class (A < 50, B < 250, C < 2000).
T2 construct: expressed in transfected cells
Method: Assessment of Inhibitor Activity in HEK293 Cell-Based Indoleamine 2,3-Dioxygenase (IDO) Assay
HEK293 cells were transfected with a pCDNA-based mammalian expression vector harboring human IDO1 cDNA (NM 002164.2) by electroporation. They were cultured in medium (DMEM with 10% FBS) containing 1 mg/ml G418 for two weeks. Clones of HEK293 cells that stably expressed human IDO1 protein were selected and expanded for IDO inhibition assay.
The human IDO1/HEK293 cells were seeded at 10,000 cells per 50 μL per well with RPMI/phenol red free media contains 10% FBS in a 384-well black wall clear bottom tissue culture plate (Matrix Technologies LLC) 100 nL of certain concentration of compound was then added to each well using ECHO liquid handling systems. The cells were incubated for 20 hours in 37° C. incubator with 5% CO2.
The compound treatments were stopped by adding trichloroacetic acid (Sigma-Aldrich) to a final concentration at 0.2%. The cell plate was further incubated at 50° C. for 30 minute. The equal volume supernatant (20 μL) and 0.2% (w/v) Ehrlich reagent (4-dimethylaminobenzaldehyde, Sigma-Aldrich) in glacial acetic acid were mixed in a new clear bottom 384-well plate. This plate was then incubated at room temperature for 30 minute. The absorbance at 490 nm was measured on Envision plate reader.
Compound IC50 values were calculated using the counts of 500 nM of a reference standard treatment as one hundred percent inhibition, and counts of no compound but DMSO treatment as zero percent inhibition.

T2 sequence (P14902 whole entry): as above

| Molecule | IC50 [nM] |
| --- | --- |
| CCOC(C)(C)c1ccc([C@H](CC)CC(=O)O)cc1NC(=O)Nc1ccc(C)cc1 (single isomer, unassigned) [Example 1] | 250 to 2000 |
